System: female cockroach (periplaneta fuliginosa)
Test: Efficacy Test 1: Concentrate Dropping Test
Assay type: in vivo
Conditions: for Time until the subject insect stops moving (seconds) Average / Time until the subject insect stops moving (seconds) No. 1 / Time until the subject insect stops moving (seconds) No. 2 / Time until the subject insect stops moving (seconds) No. 3 / Time until the subject insect stops moving (seconds) No. 4 / Time until the subject insect stops moving (seconds) No. 5: 0.5 mL dropped between thorax and abdomen; for Time until the subject insect stops moving (seconds) Average: average of five tests; for Time until the subject insect stops moving (seconds) No. 1: repeat No. 1; for Time until the subject insect stops moving (seconds) No. 2: repeat No. 2; for Time until the subject insect stops moving (seconds) No. 3: repeat No. 3; for Time until the subject insect stops moving (seconds) No. 4: repeat No. 4; for Time until the subject insect stops moving (seconds) No. 5: repeat No. 5; for Lethality (%) after 24 hours: 0.5 mL dropped, 24 hours at 20° C., humidity 26%, five tests
Method: A plastic cup (capacity of 860 ml) that is open at the top was provided, and butter was spread on the upper part of the cup interior. Then, as a subject insect, one female cockroach (periplaneta fuliginosa) was gently placed on its back at the bottom of the plastic cup.
After confirming that the subject insect is lying on its back, 0.5 mL of the subject agent in Table 1 was dropped on to the insect between the thorax and the abdomen using a pipet, and the time (seconds) until the subject insect's movement completely stopped was measured.
Subsequently, the subject insect was transferred to another plastic cup and left in a room having a temperature of 20° C. and a humidity of 26%. The number of subject insects that died after 24 hours was counted. The test was repeated five times to obtain the lethality (%) based on the average of the results.

Compound: FC(F)C(F)(F)C(F)(F)C(F)(F)C(F)(F)C(F)(F)F [Comparative Example 2, 1H-Tridecafluorohexane]
- Time until the subject insect stops moving (seconds) Average: 56.4 s
- Time until the subject insect stops moving (seconds) No. 1: 54 s
- Time until the subject insect stops moving (seconds) No. 2: 50 s
- Time until the subject insect stops moving (seconds) No. 3: 53 s
- Time until the subject insect stops moving (seconds) No. 4: 62 s
- Time until the subject insect stops moving (seconds) No. 5: 63 s
- Lethality (%) after 24 hours: 40%

Compound: FC(F)(F)/C=C/Cl [Example 1, Trans-1-chloro-3,3,3-trifluoropropene]
- Time until the subject insect stops moving (seconds) Average: 1.4 s
- Time until the subject insect stops moving (seconds) No. 1: 2 s
- Time until the subject insect stops moving (seconds) No. 2: 1 s
- Time until the subject insect stops moving (seconds) No. 3: 1 s
- Time until the subject insect stops moving (seconds) No. 4: 1 s
- Time until the subject insect stops moving (seconds) No. 5: 2 s
- Lethality (%) after 24 hours: 80%

Source: patent US10306878B2, “Insect pest control agent” (priority 2013, dated 2019)
